Reference: ChEMBL document CHEMBL4699649, “Design and Optimization of an Acyclic Amine Series of TRPV4 Antagonists by Electronic Modulation of Hydrogen Bond Interactions” (J Med Chem, 2020)
pIC50: −log10 of the molar value. Converted amounts (≈) assume the structure as drawn.

Legend:
[1] = target: Transient receptor potential cation channel subfamily V member 4 (Homo sapiens, UniProt Q9HBA0); experiment: Antagonist activity at human TRPV4 expressed in BHK or HEK MSR2 cells assessed as inhibition of TRPV4 agonist GSK634775 (EC80)-induced response incubated for 10 mins; format: cell-based
[2] = Solubility of the compound by CLND assay; format: physicochemical
[3] = Distribution coefficient, log D of the compound by chromatographic method; format: physicochemical; details: octanol/water
[4] = MRT in iv dosed rat; format: ADME, organism-based; details: in vivo
[5] = Clearance in iv dosed rat; format: ADME, organism-based; details: in vivo
Cytochrome P450 3A4 = Cytochrome P450 3A4 (Homo sapiens, UniProt P08684); experiment: Time dependent inhibition of recombinant human CYP3A4 expressed in bactosomes at 100 to 300 uM using 7-benzyloxy-4-(trifluoromethyl)-coumarin substrate in presence of NADPH-generating system incubated up to 15 mins by fluorescence based assay; format: ADME; details: recombinant enzyme, 0.25 h, dose 100-300 µM
[6] = Dose normalized AUC in orally dosed rat; format: ADME, organism-based; details: in vivo, po
[7] = Oral bioavailability in rat; format: ADME, organism-based; details: in vivo
[8] = Fraction unbound in rat plasma; format: ADME, cell-free
[9] = Cmax in rat; format: ADME; details: in vivo
[10] = Volume of distribution at steady state in iv dosed rat; format: ADME, organism-based; details: in vivo, read-out: Vdss
[11] = Unbound clearance in iv dosed rat; format: ADME, organism-based; details: in vivo

Cytochrome P450 3A4, sequence (P08684 whole entry): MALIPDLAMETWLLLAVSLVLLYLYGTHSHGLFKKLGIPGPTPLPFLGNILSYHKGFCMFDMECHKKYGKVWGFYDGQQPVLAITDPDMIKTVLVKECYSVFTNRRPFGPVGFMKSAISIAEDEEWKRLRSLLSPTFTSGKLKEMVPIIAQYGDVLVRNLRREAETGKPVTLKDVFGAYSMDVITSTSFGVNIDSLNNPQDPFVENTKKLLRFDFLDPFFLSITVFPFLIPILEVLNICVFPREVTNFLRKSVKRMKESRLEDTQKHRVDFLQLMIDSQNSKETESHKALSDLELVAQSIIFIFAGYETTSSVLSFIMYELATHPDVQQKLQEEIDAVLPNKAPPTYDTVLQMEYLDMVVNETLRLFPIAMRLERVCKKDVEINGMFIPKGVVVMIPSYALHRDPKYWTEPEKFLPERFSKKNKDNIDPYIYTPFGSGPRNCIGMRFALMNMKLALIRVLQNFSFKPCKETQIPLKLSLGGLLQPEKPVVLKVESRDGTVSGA
Transient receptor potential cation channel subfamily V member 4, sequence (Q9HBA0 whole entry): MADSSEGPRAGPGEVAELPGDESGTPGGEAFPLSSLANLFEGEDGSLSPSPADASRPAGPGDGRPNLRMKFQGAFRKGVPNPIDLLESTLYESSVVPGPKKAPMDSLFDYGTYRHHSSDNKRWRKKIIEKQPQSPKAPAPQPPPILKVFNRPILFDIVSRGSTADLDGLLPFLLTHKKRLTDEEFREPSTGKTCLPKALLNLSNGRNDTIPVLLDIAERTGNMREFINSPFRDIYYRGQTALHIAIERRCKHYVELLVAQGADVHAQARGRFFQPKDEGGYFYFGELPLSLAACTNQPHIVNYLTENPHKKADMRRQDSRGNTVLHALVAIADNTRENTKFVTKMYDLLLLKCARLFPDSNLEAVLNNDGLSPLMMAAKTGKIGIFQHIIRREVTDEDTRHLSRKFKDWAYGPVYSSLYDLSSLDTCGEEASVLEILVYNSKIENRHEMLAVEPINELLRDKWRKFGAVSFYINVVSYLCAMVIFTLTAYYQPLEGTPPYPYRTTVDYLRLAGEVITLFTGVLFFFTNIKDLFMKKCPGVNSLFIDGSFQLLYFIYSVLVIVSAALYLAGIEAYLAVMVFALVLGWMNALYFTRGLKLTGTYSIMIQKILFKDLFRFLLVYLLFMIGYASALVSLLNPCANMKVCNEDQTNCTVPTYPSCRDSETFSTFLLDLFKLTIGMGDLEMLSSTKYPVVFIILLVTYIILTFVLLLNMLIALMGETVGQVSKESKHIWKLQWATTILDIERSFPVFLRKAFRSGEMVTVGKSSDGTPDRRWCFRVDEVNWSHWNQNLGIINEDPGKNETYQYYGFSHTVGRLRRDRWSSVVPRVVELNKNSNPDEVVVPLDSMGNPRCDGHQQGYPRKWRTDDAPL

## N#Cc1ccc(OCC2(O)CCN(S(=O)(=O)c3ccc(Cl)cc3Cl)CC2)cc1F
[1]
  pIC50: 7.00
[2]
  solubility kinetic: 7.5 µM (≈ 3.44 µg/mL)

## N#Cc1ccc(OCC(O)CCNS(=O)(=O)c2ccc(Cl)cc2Cl)cc1F (centres undefined)
[3]
  chromatographic logD: 5.2
[2]
  solubility kinetic: 113 µM (≈ 49 µg/mL)

## Cc1cccc(OCC(N)CCNS(=O)(=O)c2ccc(Cl)cc2Cl)c1 (centres undefined)
[1]
  pIC50: < 4.60

## N#Cc1ccc(S(=O)(=O)NCC[C@H](N)COc2ccc(C#N)c(F)c2)c(C(F)(F)F)c1
[4]
  MRT: 6.9 h
[5]
  clearance: 4.7 mL/min/kg
Cytochrome P450 3A4
  inhibition (INH): Active
[6]
  AUC/dose: 3.7 µg·h/mL
[7]
  bioavailability: 100%
[8]
  fraction unbound: 0.015

## N#Cc1ccc(OC[C@@H](N)CCNS(=O)(=O)c2ccc(Cl)cc2Cl)cc1F
[4]
  MRT: 7.5 h
[5]
  clearance: 4.3 mL/min/kg
Cytochrome P450 3A4
  inhibition (INH): Active
[9]
  Cmax: 930 ng/mL
[3]
  chromatographic logD: 4.5
[10]
  Vd: 1.8 L/kg
[6]
  AUC/dose: 4.7 µg·h/mL
[11]
  CL free: 512 mL/min/kg
[7]
  bioavailability: 85%
[2]
  solubility kinetic: 381 µM (≈ 165 µg/mL)
[8]
  fraction unbound: 0.0084

## C[C@](N)(CCNS(=O)(=O)c1ccc(C#N)cc1C(F)(F)F)COc1ccc(C#N)c(F)c1
[4]
  MRT: 7 h
[5]
  clearance: 37 mL/min/kg
Cytochrome P450 3A4
  inhibition (INH): Not Active
[6]
  AUC/dose: 0.6 µg·h/mL
[7]
  bioavailability: 100%
[8]
  fraction unbound: 0.064

## N#Cc1ccc(N)c(OC[C@@H](N)CCNS(=O)(=O)c2ccc(Cl)cc2Cl)c1
[4]
  MRT: 2.3 h
[5]
  clearance: 38 mL/min/kg
Cytochrome P450 3A4
  inhibition (INH): Active
[6]
  AUC/dose: 0.1 µg·h/mL
[7]
  bioavailability: 22%
[8]
  fraction unbound: 0.029

## N#Cc1ccc(OC[C@@H](N)CCNS(=O)(=O)c2ccc(C(F)(F)F)cc2)cc1F
[1]
  pIC50: 6.20

## COc1ccccc1S(=O)(=O)NCC[C@H](N)COc1ccc(C#N)c(F)c1
[1]
  pIC50: 5.10

## NC(CCNS(=O)(=O)c1ccc(Cl)cc1Cl)COc1cccc(Cl)c1 (centres undefined)
[1]
  pIC50: 4.90

## N#Cc1ccc(OC[C@@H](N)CCNS(=O)(=O)c2ccccc2C(F)(F)F)cc1F
[1]
  pIC50: 7.40

## N#Cc1ccc(OC[C@@H](N)CCNS(=O)(=O)c2ccccc2OC(F)(F)F)cc1F
[1]
  pIC50: 6.20

## CN(CCC(O)COc1ccc(C#N)c(F)c1)S(=O)(=O)c1ccc(Cl)cc1Cl (racemic)
[1]
  pIC50: 5.00

## N#Cc1ccc(OCC(N)CCNS(=O)(=O)c2ccc(Cl)cc2Cl)cc1F (racemic)
[3]
  chromatographic logD: 4.6
[2]
  solubility kinetic: ≥ 390 µM

## N#Cc1ccc(OCC(N)CCNS(=O)(=O)c2cccc(Cl)c2)cc1F (racemic)
[1]
  pIC50: 4.90

## N#Cc1ccc(OCC(N)CCNS(=O)(=O)c2ccccc2)cc1F (racemic)
[1]
  pIC50: 4.70
